Activity calls are given as the source filed them. The rule behind the calls is not given here.
Tests used:
Opioid receptor [1] = target: T1, Opioid receptor (Rattus norvegicus, UniProt P33533+P34975+P33535); experiment: Displacement of [3H]-naloxone from rat opioid receptor after 30 mins by liquid scintillation counting analysis in absence of NaCl; assay type: protein assay
Opioid receptor [2] = target: T1, Opioid receptor; experiment: Displacement of [3H]-naloxone from rat opioid receptor after 30 mins by liquid scintillation counting analysis in presence of NaCl; assay type: protein assay
Mus musculus [3] = organism: Mus musculus; experiment: Analgesic activity in Swiss-Webster mouse measured for 20 mins by tail flick test; assay type: functional
Mus musculus [4] = organism: Mus musculus; experiment: Analgesic activity in Swiss-Webster mouse assessed as reduction of […]-induced writhing; assay type: functional
Mus musculus [5] = experiment: In vivo inhibition of morphine-induced straub-tail response in sc dosed Swiss-Webster mouse measured for 30 mins; assay type: functional; settings: for ED50: 0.5 h

Oc1ccc2c3c1O[C@H]1[C@@H](O)C=C[C@H]4[C@@H](C2)N(C2CCCCC2)CC[C@@]341
IC50 (Opioid receptor [1]): 38 nM | IC50 (Opioid receptor [2]): 92 nM | ED50 (Mus musculus [3]): > 212 µmol/kg | ED50 (Mus musculus [4]): 15.7 µmol/kg

CC[C@@H](C)N1CC[C@]23c4c5ccc(O)c4O[C@H]2[C@@H](O)C=C[C@H]3[C@H]1C5
IC50 (Opioid receptor [1]): 60 nM | IC50 (Opioid receptor [2]): 110 nM

Oc1ccc2c3c1O[C@H]1[C@@H](O)C=C[C@H]4[C@@H](C2)N(C2CCCC2)CC[C@@]341
IC50 (Opioid receptor [1]): 34 nM | IC50 (Opioid receptor [2]): 45 nM | ED50 (Mus musculus [3]): 124 µmol/kg | ED50 (Mus musculus [4]): 15.5 µmol/kg | ED50 (Mus musculus [5]): 15.5 µmol/kg

C=C[C@H](C)N1CC[C@]23c4c5ccc(O)c4O[C@H]2[C@@H](O)C=C[C@H]3[C@H]1C5
IC50 (Opioid receptor [1]): 16 nM | IC50 (Opioid receptor [2]): 25 nM | ED50 (Mus musculus [3]): 105 µmol/kg

CCCN1CC[C@]23c4c5ccc(O)c4O[C@H]2[C@@H](O)C=C[C@H]3[C@H]1C5
IC50 (Opioid receptor [1]): 14 nM | IC50 (Opioid receptor [2]): 14 nM | ED50 (Mus musculus [3]): 51 µmol/kg | ED50 (Mus musculus [4]): 29 µmol/kg | ED50 (Mus musculus [5]): 0.6 µmol/kg

CCC(C)(C)N1CC[C@]23c4c5ccc(O)c4O[C@H]2[C@@H](O)C=C[C@H]3[C@H]1C5
IC50 (Opioid receptor [1]): 1000 nM | IC50 (Opioid receptor [2]): 1000 nM | ED50 (Mus musculus [3]): > 580 µmol/kg | ED50 (Mus musculus [4]): > 290 µmol/kg

C=C[C@@H](C)N1CC[C@]23c4c5ccc(O)c4O[C@H]2[C@@H](O)C=C[C@H]3[C@H]1C5
IC50 (Opioid receptor [1]): 27 nM | IC50 (Opioid receptor [2]): 80 nM

CN1CC[C@]23c4c5ccc(O)c4O[C@H]2[C@@H](O)C=C[C@H]3[C@H]1C5 [MORPHINE]
ED50 (Mus musculus [3]): 10.5 µmol/kg | ED50 (Mus musculus [4]): 1.5 µmol/kg | inhibition (Mus musculus [5]): inactive

Oc1ccc2c3c1O[C@H]1[C@@H](O)C=C[C@H]4[C@@H](C2)N(C2CCCCCC2)CC[C@@]341
IC50 (Opioid receptor [1]): 19 nM | IC50 (Opioid receptor [2]): 150 nM | ED50 (Mus musculus [3]): > 136 µmol/kg | ED50 (Mus musculus [4]): 9.9 µmol/kg | ED50 (Mus musculus [5]): 60.8 µmol/kg

CC(Cc1ccccc1)N1CC[C@]23c4c5ccc(O)c4O[C@H]2[C@@H](O)C=C[C@H]3[C@H]1C5 (some centres not stated)
IC50 (Opioid receptor [1]): 3.4 nM | IC50 (Opioid receptor [2]): 125 nM | ED50 (Mus musculus [3]): 4.3 µmol/kg | ED50 (Mus musculus [4]): 0.13 µmol/kg | inhibition (Mus musculus [5]): inactive

CC[C@H](C)N1CC[C@]23c4c5ccc(O)c4O[C@H]2[C@@H](O)C=C[C@H]3[C@H]1C5
IC50 (Opioid receptor [1]): 28 nM | IC50 (Opioid receptor [2]): 62 nM

C=CC(C)(C)N1CC[C@]23c4c5ccc(O)c4O[C@H]2[C@@H](O)C=C[C@H]3[C@H]1C5
IC50 (Opioid receptor [1]): > 1000 nM | IC50 (Opioid receptor [2]): > 1000 nM | ED50 (Mus musculus [3]): > 295 µmol/kg | ED50 (Mus musculus [4]): 74 µmol/kg

CC(C)(Cc1ccccc1)N1CC[C@]23c4c5ccc(O)c4O[C@H]2[C@@H](O)C=C[C@H]3[C@H]1C5
IC50 (Opioid receptor [1]): 1000 nM | IC50 (Opioid receptor [2]): 1000 nM | ED50 (Mus musculus [3]): > 310 µmol/kg | ED50 (Mus musculus [4]): > 176 µmol/kg

CCCC(C)N1CC[C@]23c4c5ccc(O)c4O[C@H]2[C@@H](O)C=C[C@H]3[C@H]1C5 (some centres not stated)
IC50 (Opioid receptor [1]): 37 nM | IC50 (Opioid receptor [2]): 340 nM | ED50 (Mus musculus [3]): > 439 µmol/kg | ED50 (Mus musculus [4]): 9 µmol/kg | ED50 (Mus musculus [5]): 80.8 µmol/kg

CCC(CC)N1CC[C@]23c4c5ccc(O)c4O[C@H]2[C@@H](O)C=C[C@H]3[C@H]1C5
IC50 (Opioid receptor [1]): 78 nM | IC50 (Opioid receptor [2]): 175 nM

Oc1ccc2c3c1O[C@H]1[C@@H](O)C=C[C@H]4[C@@H](C2)N(CCc2ccccc2)CC[C@@]341
IC50 (Opioid receptor [1]): 4.2 nM | IC50 (Opioid receptor [2]): 133 nM | ED50 (Mus musculus [3]): 1.7 µmol/kg | ED50 (Mus musculus [4]): 0.27 µmol/kg | inhibition (Mus musculus [5]): inactive

Oc1ccc2c3c1O[C@H]1[C@@H](O)C=C[C@H]4[C@@H](C2)N(C2C=CCCC2)CC[C@@]341 (some centres not stated)
IC50 (Opioid receptor [1]): 51 nM | IC50 (Opioid receptor [2]): 130 nM | ED50 (Mus musculus [3]): 79.7 µmol/kg | ED50 (Mus musculus [5]): 23.8 µmol/kg

C=CCN1CC[C@]23c4c5ccc(O)c4O[C@H]2[C@@H](O)C=C[C@H]3[C@H]1C5 [NALORPHINE]
IC50 (Opioid receptor [1]): 2 nM | IC50 (Opioid receptor [2]): 6 nM | ED50 (Mus musculus [4]): 3.2 µmol/kg

From ChEMBL document CHEMBL3272183, “Analgesics. 1. Synthesis and analgesic properties of N-sec-alkyl- and N-tert-alkylnormorphines” (J Med Chem, 1978)
